The numbers were not newly measured in PubChem BioAssay AID1259409 (Chemical Carcinogenesis Research Information System (CCRIS), 2018), which cites them from elsewhere.

This series deals with rodent chemically induced tumor inhibition, incidence and multiplicity. As to the kind of experiment: CCRIS tumor inhibitor studies. The note with it: Route [Inhibitor]: ORAL, Promoter: NONE USED.

Consider `CC1=C(/C=C/C(C)=C/C=C/C(C)=C/C(=O)Nc2ccc(O)cc2)C(C)(C)CCC1`, for which the “tumour outcome (control, treated, inhibition, significance)” value is, setting by setting: (Carcinogen: METHYLNITROSOUREA, 684-93-5, Dose [Inhibitor]: 0, 782 MG/KG DIET IN VEHICLE 2 MO PRIOR TO CARCINOGEN DOSE AND CONTINUED UNTIL CARCINOGEN ADMINISTRATION (STUDY DURATION, Species: RAT, Strain/Sex: CD-1/FEMALE, Target Tissue: Type of Lesion: MAMMARY GLAND: BENIGN TUMOR, Dose [Carcinogen]: 50 MG/KG BW ONCE) 10%, 14%, -40%, not calculated; (Carcinogen: N-BUTYL-N(4-HYDROXYBUTYL)NITROSAMINE, 3817-11-6, Dose [Inhibitor]: 0, 156 MG/KG DIET FOR 6 MO BEGINNING 1 WK PRIOR TO CARCINOGEN TREATMENT (STUDY DURATION: 6 MO), Species: MOUSE, Strain/Sex: BDF/MALE, Target Tissue: Type of Lesion: URINARY BLADDER: CARCINOMA, Dose [Carcinogen]: 7.5 MG IN 0.1 ML ETHANOL:WATER (20:80) 1/WK FOR 8 WK) 27/70 (39%), 31/67 (46%), -18%, not calculated; (Carcinogen: N-BUTYL-N-(4-HYDROXYBUTYL)NITROSAMINE, 3817-11-6, Dose [Inhibitor]: 0, 156 MG/KG DIET BEGINNING 1 WK PRIOR TO CARCINOGEN TREATMENT AND CONTINUING FOR DURATION OF STUDY (STUDY DURATION: 180, Species: MOUSE, Strain/Sex: BDF/MALE, Target Tissue: Type of Lesion: BLADDER: CARCINOMA, Dose [Carcinogen]: 7.5 MG IN 0.1 ML OF ETHANOL:WATER (20:80) 1/WK FOR 8 WK) 25/63 (40%), 27/70 (39%), 3%, not significant; (Carcinogen: N-BUTYL-N-(4-HYDROXYBUTYL)NITROSAMINE, 3817-11-6, Dose [Inhibitor]: 0, 313 MG/KG DIET BEGINNING 1 WK PRIOR TO CARCINOGEN TREATMENT AND CONTINUING FOR DURATION OF STUDY (STUDY DURATION: 180, Species: MOUSE, Strain/Sex: BDF/MALE, Target Tissue: Type of Lesion: BLADDER: CARCINOMA, Dose [Carcinogen]: 7.5 MG IN 0.1 ML OF ETHANOL:WATER (20:80) 1/WK FOR 8 WK) 28/65 (43%), 20/67 (30%), 30%, not significant; (Carcinogen: N-BUTYL-N-(4-HYDROXYBUTYL)NITROSAMINE, 3817-11-6, Dose [Inhibitor]: 0, 313 MG/KG DIET FOR 6 MO BEGINNING 1 WK PRIOR TO CARCINOGEN TREATMENT (STUDY DURATION: 6 MO), Species: MOUSE, Strain/Sex: BDF/MALE, Target Tissue: Type of Lesion: URINARY BLADDER: CARCINOMA, Dose [Carcinogen]: 7.5 MG IN 0.1 ML ETHANOL:WATER (20:80) 1/WK FOR 8 WK) 30/73 (41%), 28/67 (42%), -2%, not calculated; (Carcinogen: N-BUTYL-N-(4-HYDROXYBUTYL)NITROSAMINE, 3817-11-6, Dose [Inhibitor]: 1.5 MMOL/KG DIET DAILY FOR 153 D STARTING ONE WK AFTER THE FINAL CARCINOGEN DOSE (STUDY DURATION: 210 D), Species: MOUSE, Strain/Sex: BDF/MALE, Target Tissue: Type of Lesion: URINARY BLADDER: TRANSITIONAL CELL CARCINOMA, Dose [Carcinogen]: 7.5 MG 1/WK FOR 8 WK) 35/99 (35%), 21/100 (21%), 40%, p<0.05. In addition, the “tumour outcome (control, treated, inhibition, significance)” value runs as follows: (Carcinogen: N-BUTYL-N-(4-HYDROXYBUTYL)NITROSAMINE, 3817-11-6, Dose [Inhibitor]: 1.5 MMOL/KG IN DIET FOR 153 D STARTING 1 WK AFTER LAST CARCINOGEN DOSE (STUDY DURATION: 210 D), Species: MOUSE, Strain/Sex: DBF1/MALE, Target Tissue: Type of Lesion: URINARY BLADDER: TRANSITIONAL CELL CARCINOMA, Dose [Carcinogen]: 7.5 MG 1/WK FOR 8 WK) 35/99 (35%), 21/100 (21%), 40%, p<0.05; (Carcinogen: N-BUTYL-N-(4-HYDROXYBUTYL)NITROSAMINE, 3817-11-6, Dose [Inhibitor]: 391 MG/KG DIET STARTING 1 WK AFTER FINAL CARCINOGEN DOSE AND CONTINUING THROUGH END OF STUDY (STUDY DURATION: 205 D), Species: MOUSE, Strain/Sex: DBF1/MALE, Target Tissue: Type of Lesion: URINARY BLADDER: TRANSITIONAL CELL CARCINOMA, Dose [Carcinogen]: 7.5 MG 1/WK FOR 8 WK) 19/50 (38%), 9/49 (18%), 53%, p<0.05; (Carcinogen: N-BUTYL-N-(4-HYDROXYBUTYL)NITROSAMINE, 3817-11-6, Dose [Inhibitor]: 391 MG/KG IN DIET BEGINNING 1 WK AFTER FINAL CARCINOGEN DOSE AND CONTINUING THROUGH END OF STUDY (STUDY DURATION: 205 D), Species: MOUSE, Strain/Sex: DBF1/MALE, Target Tissue: Type of Lesion: URINARY BLADDER: TRANSITIONAL CELL CARCINOMA, Dose [Carcinogen]: 7.5 MG 1/WK FOR 8 WK) 19/50 (38%), 9/49 (18%), 53%, p<0.05; (Carcinogen: N-ETHYL-N-NITROSOUREA, 759-73-9, Dose [Inhibitor]: 0, 98 MG/KG DIET FOR DURATION OF STUDY BEGINNING POST CARCINOGEN DOSE (STUDY DURATION: 35 WK), Species: MOUSE, Strain/Sex: PIM/MALE, Target Tissue: Type of Lesion: LYMPHATIC SYSTEM: LYMPHOMA, Dose [Carcinogen]: 50 MG/KG BW ONCE) 21/40 (53%), 13/30 (43%), 19%, not significant; (Carcinogen: N-ETHYL-N-NITROSOUREA, 759-73-9, Dose [Inhibitor]: 0, 196 MG/KG DIET FOR DURATION OF STUDY BEGINNING POST CARCINOGEN DOSE (STUDY DURATION: 35 WK), Species: MOUSE, Strain/Sex: PIM/MALE, Target Tissue: Type of Lesion: LYMPHATIC SYSTEM: LYMPHOMA, Dose [Carcinogen]: 50 MG/KG BW ONCE) 21/40 (53%), 15/29 (52%), 2%, not significant; (Carcinogen: N-ETHYL-N-NITROSOUREA, 759-73-9, Dose [Inhibitor]: 0, 391 MG/KG DIET FOR DURATION OF STUDY BEGINNING POST CARCINOGEN DOSE (STUDY DURATION: 35 WK), Species: MOUSE, Strain/Sex: PIM/MALE, Target Tissue: Type of Lesion: LYMPHATIC SYSTEM: LYMPHOMA, Dose [Carcinogen]: 50 MG/KG BW ONCE) 21/40 (53%), 16/40 (40%), 26%, not significant.
